According to paper PMC8791944, “GLUT3 inhibitor discovery through in silico ligand screening and in vivo validation in eukaryotic expression systems” (Scientific Reports, 2022):
Values joined by “and” are separate entries in the source; they are usually repeats but may differ in a detail not shown here. Identical values can stand only once. “Also recorded” adds a separate entry of the source. Like-named read-outs stand apart in the source and are kept apart here.

Target: T1, GLUT3S66Y (Homo sapiens, UniProt P11169, S66Y)
T1 construct: expressed in transfected cells; host or cells: Saccharomyces cerevisiae hxt0 strain EBY.S7 (fgy1)
T1 sequence (P11169 1-496 S66Y): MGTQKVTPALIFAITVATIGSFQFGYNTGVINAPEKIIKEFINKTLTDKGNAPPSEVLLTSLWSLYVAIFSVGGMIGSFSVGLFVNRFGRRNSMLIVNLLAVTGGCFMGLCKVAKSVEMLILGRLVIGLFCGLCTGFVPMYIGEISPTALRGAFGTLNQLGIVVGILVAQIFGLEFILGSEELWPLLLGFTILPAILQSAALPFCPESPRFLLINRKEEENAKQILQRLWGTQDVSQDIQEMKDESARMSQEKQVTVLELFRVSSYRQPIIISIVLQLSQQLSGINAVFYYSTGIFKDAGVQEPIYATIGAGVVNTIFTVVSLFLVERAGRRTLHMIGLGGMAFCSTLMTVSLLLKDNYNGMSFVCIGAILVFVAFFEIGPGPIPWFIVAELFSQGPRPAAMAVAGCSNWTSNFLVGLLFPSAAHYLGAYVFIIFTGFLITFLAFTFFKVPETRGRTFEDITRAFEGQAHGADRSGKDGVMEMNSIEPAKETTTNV
Test: Glucose transport assay, GLUT3S66Y expressed in hxt^0 yeast cells EBY.S7
Type: cell-based
Conditions: for Inhibition mode in GLUT3: Dixon plots, versus glucose; for Ki: Ki for GLUT3 inhibition (Dixon plot), Dixon plots with GLUT3S66Y at 0.75, 1.50 and 3.00 mM glucose, competitive with glucose
Source text: We determined GLUT3 transport activity by measuring the accumulation of radioactive glucose inside whole hxt^0 yeast cells (see “Materials and methods” for details). To select an appropriate substrate concentration for transport inhibition screening, we assessed the KM of glucose for GLUT3 in hxt^0 cells. […] Indeed, functional expression of human GLUTs in hxt^0 cells often requires mutations in genes related to yeast lipid composition[65],[73] as well as single-site mutations that may favor the outward-facing conformation of the transporters[65]–[67].
The plasmids containing functional constructs of GLUT1-5 were transformed in the corresponding hxt^0 strains[65],[66],[73] (EBY.VW4000 for GLUT5S72Y, EBY.S7 for GLUT1, GLUT2∆loopS_Q455R, GLUT3 and GLUT3S66Y, and SDY.022 for GLUT4) and grown on 2% (w/v) agar plates of the respective media supplemented with 1% (w/v) maltose. An initial culture of ~ 10 ml was started with a few colonies and grown for 2–3 days if the media was SC-uracil with 1% (w/v) maltose (GLUT1, GLUT3, GLUT4) or 1–2 days if the media was YEP with 1% (w/v) maltose and 100 µg/ml geneticin G418 (GLUT2∆loopS_Q455R and GLUT5S72Y). Cells were washed once in the corresponding media in which maltose was substituted with 0.1–2% hexose substrate for the expressing GLUT (i.e., SC-uracil, 2% (w/v) glucose for GLUT1; SC-uracil, 0.2% (w/v/) glucose for GLUT3 and GLUT4; YEP, 0.2% (w/v) glucose, 100 µg/ml geneticin G418 for GLUT2∆loopS_Q455R, and YEP, 2% (w/v) fructose for GLUT5 S72Y). Then, cells were transferred in the same media so that OD600nm ~ 0.5 and grown further for 1–2 days.
For transport activity assay, cells in the hexose media were centrifuged (1000×g, 5 min, room temperature), washed once with PBS buffer (10 mM Na2HPO4, 1.8 mM KH2PO4, 2.7 mM KCl, 137 mM NaCl, pH 7.4), and resuspended in PBS buffer at an OD600nm ~ 10; each assay contained 100 µl of this cell solution. Transport activity assay was started by adding C^14-hexose at a substrate concentration corresponding to the respective KM (5 mM glucose for GLUT1 or GLUT4, 3 mM glucose for GLUT3 or 1.5 mM glucose for GLUT3S66Y, 15 mM glucose for GLUT2∆loopS_Q455R, and 10 mM fructose for GLUT5S72Y); for determining the glucose KM in GLUT3 and GLUT3S66Y, substrate concentrations were varied accordingly. […] The filtration membranes were transferred into scintillation vials with 10 ml of Scintillation Solution (BioSafeII; Research Products International, Mount Prospect, IL, USA), and vortexed briefly. The radioactivity was determined with a scintillation counter (Tri-carb 2900TR, Perkin Elmer, USA). As all compounds were solubilized in dimethyl sulfoxide (DMSO), controls for determining the relative transport activity included 1% (v/v) DMSO to represent DMSO used as vehicle control (i.e., 100% activity), and known inhibitors at saturating concentrations, 200 µM phloretin for GLUT1-4[69],[82], and 100 µM N-[4-(methylsulfonyl)-2-nitrophenyl]-1,3-benzodioxol-5-amine (MSNBA) for GLUT5 (i.e., complete inhibition). […] Data were analyzed with GraphPad Prism (San Diego, CA, USA).
Supplementary Figure S3. Dose response curves for G3iA-G3iF inhibition of GLUT3S66Y. […] Error bars represent standard deviations from at least three independent measurements. Graphs, data analysis, and IC50 values were generated with GraphPad (www.graphpad.com).
Inhibition mode of G3iA, G3iC, and G3iE in GLUT3. (A-C) Dixon plots^2 for GLUT3S66Y inhibition by G3iA, G3iC, and G3iE, respectively.

## COc1ccccc1-n1c(/C=C/c2ccc(O)cc2)nc2ccc(Br)cc2c1=O [G3iB, 6-bromo-2-[(E)-2-(4-hydroxyphenyl)ethenyl]-3-(2-methoxyphenyl)quinazolin-4(3H)-one]
read-out: IC50 for GLUT3S66Y transport inhibition
  IC50: 9.62 ± 1.17 µM

## Cc1cc(NC(=O)CCC2Cc3ccccc3NC2=O)nc(-c2ccccc2)n1 (stereo not shown) [G3iD]
  IC50: 12.6 ± 1.6 µM

## O=C(Nc1cccc(Cl)c1)c1cccc(NC(=O)c2cccc([N+](=O)[O-])c2)c1 [G3iE, N-{3-[(3-chloroanilino)carbonyl]phenyl}-3-nitrobenzamide]
  IC50: 20.6 ± 2.4 µM
  Inhibition mode in GLUT3: competitive inhibition with glucose; also recorded: competition with glucose; also recorded: competitive inhibition mode
  Ki: 12.3 ± 0.9 µM

## Cc1ccccc1CN(Cc1nnc(C(C)(C)C)o1)c1ccc2nc(O)[nH]c2c1 [G3iF]
  IC50: 24.8 ± 6 µM

## Cc1cccnc1OC1CCN(c2cc(N3CCCC3CO)ncn2)CC1 (stereo not shown) [G3iC]
  IC50: 10.1 ± 2.1 µM
  Inhibition mode in GLUT3: competitive inhibition with glucose; also recorded: competitive inhibition mode
  Ki: 5.83 ± 0.3 µM

## CC(=O)Nc1ccc(S(=O)(=O)Nc2ccc(Nc3cc(N(C)C)nc(C)n3)cc2)cc1 [G3iA, N-(4-{[(4-{[6-(dimethylamino)-2-methylpyrimidin-4-yl]amino}phenyl)amino]sulfonyl}phenyl)acetamide]
  IC50: 6.21 ± 0.95 µM
  Inhibition mode in GLUT3: competitive inhibition with glucose
  Ki: 3.49 µM and ~3.5 µM
Listed as G2iA
  Inhibition mode in GLUT3: competitive inhibition mode
